Like-named read-outs stand apart in the source and are kept apart here.
Assay: solubility of paclitaxel in olive oil, castor oil and hydrophobic excipients (crystal formation after drying)
Type: physicochemical
Procedure: The specific experimental method was as follows. […] The chloroform solution was mixed with 0.5 ml of chloroform, from which 0.5 ml of diluent was taken and two-fold serial dilution was performed by using chloroform. Then 0.5 ml of a chloroform solution of paclitaxel (10 mg/ml) was added to the above-mentioned sample after the two-fold serial dilution, and then left in a hood to be naturally volatilized overnight. Crystal formation in the dried sample was observed and recorded.

solubility of paclitaxel (crystal formation in the dried sample)	Compound	solubility of paclitaxel compared with olive oil and castor oil (data comparison in table 1)	solubility of paclitaxel (crystal formation in the dried sample) (hydrophobic excipient 0.98 mg, 0.5 ml chloroform solution of paclitaxel (10 mg/ml), volatilized overnight)	solubility of paclitaxel (crystal formation in the dried sample) (hydrophobic excipient 1.95 mg, 0.5 ml chloroform solution of paclitaxel (10 mg/ml), volatilized overnight)	solubility of paclitaxel (crystal formation in the dried sample) (hydrophobic excipient 3.90 mg, 0.5 ml chloroform solution of paclitaxel (10 mg/ml), volatilized overnight)	solubility of paclitaxel (crystal formation in the dried sample) (hydrophobic excipient 7.81 mg, 0.5 ml chloroform solution of paclitaxel (10 mg/ml), volatilized overnight)	solubility of paclitaxel (crystal formation in the dried sample) (hydrophobic excipient 15.65 mg, 0.5 ml chloroform solution of paclitaxel (10 mg/ml), volatilized overnight)	solubility of paclitaxel (crystal formation in the dried sample) (hydrophobic excipient 31.30 mg, 0.5 ml chloroform solution of paclitaxel (10 mg/ml), volatilized overnight)	solubility of paclitaxel (crystal formation in the dried sample) (hydrophobic excipient 62.50 mg, 0.5 ml chloroform solution of paclitaxel (10 mg/ml), volatilized overnight)	solubility of paclitaxel (crystal formation in the dried sample) (hydrophobic excipient 125.00 mg, 0.5 ml chloroform solution of paclitaxel (10 mg/ml), volatilized overnight)	solubility of paclitaxel (crystal formation in the dried sample) (hydrophobic excipient 250.00 mg, 0.5 ml chloroform solution of paclitaxel (10 mg/ml), volatilized overnight)
	CCCCCCCC/C=C\CCCCCCCCNC(=O)CC[C@@H](C)[C@H]1CC[C@H]2[C@@H]3[C@H](OC(=O)CNC(=O)[C@H](CCCCNC(=O)OC(C)(C)C)NC(=O)OCC4c5ccccc5-c5ccccc54)C[C@@H]4C[C@H](OC(=O)CNC(=O)[C@H](CCCCNC(=O)OC(C)(C)C)NC(=O)OCC5c6ccccc6-c6ccccc65)CC[C@]4(C)[C@H]3C[C@H](OC(=O)CNC(=O)[C@H](CCCCNC(=O)OC(C)(C)C)NC(=O)OCC3c4ccccc4-c4ccccc43)[C@]12C [Example 4]	greater than that in olive oil and castor oil	+	+	+	+/−	−	−	−	−	−
+	castor oil										

Source: patent US12616676B2, “Preparation method and use of modified hydrophobic excipient” (ZHEJIANG ZHIDA PHARMACEUTICAL CO., LTD., priority 2019, dated 2026)
